Values of other authors in US20170106067A1, “COMBINATORIAL IMMUNOTHERAPY FOR PANCREATIC CANCER TREATMENT” (THE JOHNS HOPKINS UNIVERSITY, priority 2014, published 2017).

Tested on: metastatic PDA
Conditions: Le et al., 2013

For ipilimumab, the “clinical anti tumor activity in metastatic PDA patients” value is given as “failed to demonstrate durable and effective anti tumor activity”.
